The results in this text go back to EPA's ToxValDB 9.5.

Bounds are passed on as bounds.

The test system of data set [1] is Canidae. The following applies: oral, Dog Other.
The next data set concerns Coturnix japonica. The following applies: repeat dose other; oral.
The subject of another data set is Neovison sp. The following applies: repeat dose other; oral; Mink.
In data set [2] the test system is Rattus norvegicus. The following applies: for NOEL: Hershberger, duration: 10 days, oral, gavage, Sprague-Dawley.
For a further data set, the system named is Cavia porcellus. The following applies: acute, duration: 1 days, oral, gavage, M, Guinea Pig.
For data set [3], the system named is Rattus norvegicus. The following applies: short-term; duration: 3 days; injection; subcutaneous; F; Crj:CD; uterus: uterine dry weight (absolute).
In data set [4] the test system is Canidae. The following applies: oral, M/F, Dog Other.
Data set [5] deals with Rattus norvegicus. The following applies: repeat dose other; oral.
In data set [6] the test system is Rattus norvegicus. The following applies: subchronic; oral; drinking water; M/F; nephropathy.
For data set [7], the system named is Homo sapiens. The following applies: clinical; duration: 4 hours; inhalation; M/F; neurological.
For data set [8], the system named is Rattus norvegicus. The following applies: subchronic; duration: 90 days; oral; gavage; Kidney: Increased weight + Kidney: Nephrotoxicity + Liver: Increased weight.
For data set [9], the system named is Rattus norvegicus. The following applies: oral.
A further data set has as its system Macaca mulatta. The following applies: repeat dose other; oral.
Data set [10] deals with Mus musculus. The following applies: chronic; oral; M/F; Brain cell vacuolization + liver cell alterations in females.
Data set [11] concerns Mus musculus. The following applies: oral, drinking water.
For data set [12], the system named is Homo sapiens. The following applies: clinical; oral; M/F; Decreased respiratory function.
For data set [13], the system named is Oryctolagus sp. The following applies: developmental, oral.
Data set [14] has as its system Mus musculus. The following applies: acute; duration: 1 days; oral; M; DD; hepatic.
For data set [15], the system named is Oryctolagus sp.
For another data set, the system named is Cricetulus sp. The following applies: acute; inhalation; Golden Syrian.
In data set [16] the test system is Rattus norvegicus.
Where [17] appears, read: subchronic, internal hemorrhage, mortality.
Where [18] appears, read: F, reduced stool quantity, food consumption and body weight gain hyperirritability (maternal effects).
Setting [19] is: chronic, duration: 2 years, diet, renal tubular epithelial vacuolation.
The mark [20] stands for this setting: short-term, duration: 28 days, gavage, M, Sprague-Dawley, Clinical Observation: Salivationlocomotor activity decrease, Soft stool/diarrhea + Urinalysis: Brownish urine Occult blood + Hematology: PT ….

As usually defined, the NOAEL is the highest dose or exposure tested at which no adverse effect was seen. `CNC(=O)ON=C(CSC)C(C)(C)C` yielded a no observed adverse effect level (NOAEL) in the data set with Canidae [1] (short-term, duration: 8 days, Cholinesterase: Decreased cholinesterase activity) of 0.025 mg/kg-day.

In general, LOAEL refers to the lowest tested level that showed an adverse finding. For the compound `ClC1C(Cl)C(Cl)C(Cl)C(Cl)C1Cl` (stereo not given) [1,2,3,4,5,6-Hexachlorocyclohexane], the results for the LOAEL in the data set on Coturnix japonica and in the data set on Neovison sp. were 2.25 mg/kg-day and 0.14 mg/kg-day, respectively. Further, the NOAEL in the data set with Coturnix japonica was found to be 0.56 mg/kg-day; in the data set with Neovison sp., 0.014 mg/kg-day.

Compound `Oc1ccccc1Cc1ccccc1O` [2,2'-Bisphenol F] came in with an LEL in the data set on Rattus norvegicus [2] (uterotrophic, duration: 3 days, injection, subcutaneous, Active) of 46.5 mg/kg-day. Moreover, the LOEL amounted to 12.5 mg/kg-day in the data set on Cavia porcellus (BALF eosinophil peroxidase activity + BALF histamine activity + BALF total leukocytes + specific airway resistance (sRaw) - immediate …), 50 mg/kg-day in the data set on Cavia porcellus (BALF phospholipase A2 activity) and 200 mg/kg-day in the data set on Rattus norvegicus [3]. The NOEL with Cavia porcellus (BALF phospholipase A2 activity) was 25 mg/kg-day; with Rattus norvegicus [3], 20 mg/kg-day.

For the compound `O=C(O)CCCOc1ccc(Cl)cc1Cl` [2,4-Dichlorophenoxybutyric acid], the lowest observed adverse effect level (LOAEL) in the data set on Canidae [4] (setting [17]) worked out at 25 mg/kg-day. Besides, the NOAEL with Canidae [4] (setting [17]) turned out to be 8 mg/kg-day; with Canidae [1] (subchronic, duration: 90 days, diet, Cardiovascular system: Hemorrhage + Whole body: Increased mortality) it was 8 mg/kg-day.

As to `CC(C)=O` [Acetone], the NOEL was 1000 mg/kg-day in the data set with Rattus norvegicus [2] (inactive + Negative + Negative + neither + see comment); 100 mg/kg-day in the data set with Rattus norvegicus [8]; 380 mg/kg-day in the data set with Rattus norvegicus [9] (subchronic, drinking water, M/F, Fischer 344, Body Weight Changes: decrease + Water Consumption: decrease + Hematology: WBC increase, Lymph increase, Hgb decrease, RBC decrease, MCH …). Also, the lowest observed adverse effect level (LOAEL) in the data set with Rattus norvegicus [5] was 50 mg/kg-day; in the data set on Rattus norvegicus [6], 1700 mg/kg-day; in the data set with Homo sapiens [7], 563 mg/m3. Besides, the NOAEL with Rattus norvegicus [5] turned out to be 10 mg/kg-day; with Rattus norvegicus [6] it was 900 mg/kg-day.

Take `Clc1cc(Cl)cc(-c2cc(Cl)cc(Cl)c2)c1` [Aroclor 1248]: in the data set on Macaca mulatta, the lowest-observed-adverse-effect level (LOAEL) was 0.1 mg/kg-day and the NOAEL was found to be 0.01 mg/kg-day.

Consider `Nc1ccc(-c2ccc(N)cc2)cc1` [C.I. Azoic Diazo Component 112], for which the lowest observed adverse effect level (LOAEL) with Mus musculus [10] came to 2.7 mg/kg-day; with Mus musculus [11] (chronic, duration: 33 months, Brain: Cellular changes + Liver: Cellular changes), 2.7 mg/kg-day.

In the data set on Homo sapiens [12], `CC(C)NCC(O)COc1cccc2[nH]c3ccccc3c12` (stereo not given) [Carazolol] yielded an NOEL of 0.0005 mg/kg-day.

Take `S=C=S` [Carbon disulfide]: the NOEL in the data set with Oryctolagus sp. [13] (M/F, fetal toxicity/ malformations) worked out at 11 mg/kg-day; in the data set with Oryctolagus sp. [15] (developmental, inhalation, intermittent, Fetus: Toxicity), 11 mg/kg-day. The compound also yielded an LOAEL with Mus musculus [14] of 3 mg/kg-day.

In the data set with Mus musculus [11] (subchronic, duration: 90 days, Liver: Effects), `O=CC(Cl)(Cl)Cl` [Chloral] had an LOAEL of 15.7 mg/kg-day.

In the data set with Oryctolagus sp. [13] (setting [18]), `CCOC(=O)C(O)(c1ccc(Cl)cc1)c1ccc(Cl)cc1` [Chlorobenzilate] gave an LEL of 20 mg/kg-day and an NOEL of 5 mg/kg-day. Also, the NOEL with Oryctolagus sp. [15] (short-term, duration: 13 days, oral, gavage, Gastrointestinal system: Decreased stool quantity + Nervous system: Hyperirritability + Whole body: Decreased food consumption + Whole body…) came out at 5 mg/kg-day.

By LD50 is commonly meant the dose expected to kill half of the subjects tested. Low values mean a more toxic substance, high ones a less toxic substance. For `COCCl` [Chloromethyl methyl ether], the LC50 worked out at 214 mg/m3 with Cricetulus sp. and 181 mg/m3 with Rattus norvegicus [16] (acute, inhalation, Sprague-Dawley). Also, the median lethal dose (LD50) with Rattus norvegicus [16] (acute, oral) worked out at 817 mg/kg. The NOAEL in the data set with Rattus norvegicus [16] (developmental, duration: 15 days, inhalation, Sprague-Dawley) amounted to 132 mg/m3; in the data set with Rattus norvegicus [16] (reproduction developmental, duration: 10 days, inhalation, F, Sprague-Dawley), 0.006 mg/L. Also, the NOEL in the data set with Rattus norvegicus [9] (subchronic, duration: 42 days, gavage, M, CD(SD), Body Weight Changes: decrease + Food Consumption: decrease + Urinalysis: Osm decrease + Hematology: RET increase, WBC increase, LYMPH …) was less than 15 mg/kg-day.

Regarding `N#Cc1c(Cl)c(Cl)c(Cl)c(C#N)c1Cl` [Chlorothalonil], the NOEL is 175 mg/kg-day in the data set with Rattus norvegicus [2] (inactive + Negative + Negative + neither + see note); 1.5 mg/kg-day in the data set with Canidae [4] (setting [19]); 1.5 mg/kg-day in the data set on Canidae [1] (chronic, duration: 2 years, diet, Kidney: Effects); less than 100 mg/kg-day with Rattus norvegicus [9] (setting [20]). The compound also yielded an LEL in the data set with Canidae [4] (setting [19]) of 3 mg/kg-day. Moreover, the no observed adverse effect level (NOAEL) in the data set with Rattus norvegicus [9] (setting [20]) is less than 100 mg/kg-day.

As to `ClC1=C(Cl)[C@]2(Cl)[C@@H]3[C@@H](Cl)[C@H]4O[C@H]4[C@@H]3C1(Cl)C2(Cl)Cl` [Heptachlor epoxide B], the LEL in the data set with Canidae [4] (chronic, duration: 60 weeks, diet, increased liver-to-body weight ratio in both males and females) stood at 0.0125 mg/kg-day. The compound further yielded an LOAEL with Canidae [1] (chronic, duration: 60 weeks, diet, Liver: Increased relative weight) of 0.0125 mg/kg-day.

On to `Oc1c(Cl)cc(Cl)c(Cl)c1Cc1c(O)c(Cl)cc(Cl)c1Cl` [Hexachlorophene], for which, in the data set on Canidae [4] (subchronic, duration: 13 weeks, diet, swollen salivary gland, status spongiosis in brain and optic nerve), the LEL amounted to 0.75 mg/kg-day. Moreover, the LOAEL in the data set on Canidae [1] (subchronic, duration: 13 weeks, diet, Nervous system: Effects) is 0.75 mg/kg-day.
